Reference: patent US12605397B2, “Deoxy-cytidine or uridine derivatives for use in cancer therapies” (HEMISPHERIAN AS, priority 2019, dated 2026)

What was measured:
U87-MG cells = assay: Survival assay (MTT), U87-MG; conditions: MTT; for IC50: U87-MG, Glioma, Grade IV; for cytotoxicity to U87-MG cells (cell survival): up to 100 μM
Protocol: (§5) Cell lines not mentioned above were grown in DMEM (Sigma, Cat.Nr. D6429) supplemented with 10% Fetal Bovine Serum and 100 U/ml penicillin 100 U/ml streptomycin. All cells were maintained in a 5% CO2, humidified, water-jacketed incubator at 37° C. Cells were passed between 70 and 90% confluence.
(§6) In a 96-well plate, 4000 cells in 100 μl of corresponding medium were seeded. The following day, drugs, diluted in DMSO, were added in 8 concentrations in triplicate. Drugs were added as a 4-fold dilution series starting from 100 μM. Cells were incubated with the drugs for 72 hours. Cell proliferation was assessed by MTT assay according to the manufacturer's protocol (ATCC, Cat. Nr. 30-1010K). Cell survival was normalized to the survival of cells treated with DMSO only. Experiment was performed three times, data represent mean of nine wells±SEM.
In a 96-well plate, 4000 cells in 100 μl of corresponding medium were seeded. The following day, drugs, diluted in DMSO, were added in triplicate at a concentration of 100, 25, 6.25, 1.56, 0.39, 0.1, 0.02, or 0.006 ┘M. Cells were incubated with the drugs for 72 hours. Cell proliferation was assessed by MTT assay according to the manufacturer's protocol (ATCC, Cat. Nr. 30-1010K). Cell survival was normalized to the survival of cells treated with DMSO only. Experiment was performed three times, data represent mean of nine wells±SEM.

glioblastoma multiforme = conditions: Phase II trials (NCI 06-C-0064E); cited from earlier work
NCI-N87 cells = assay: Survival assay (MTT), NCI-N87; assay type: cell-based, human; conditions: NCI-N87, Gastric Carcinoma, 72 hours, MTT
Protocol: (§1) Cells were passed between 70 and 90% confluence.
(§2) Cells were incubated with the drugs for 72 hours.

human cancer cell lines = assay: Survival assay, range of human cancer cell lines; assay type: cell-based; conditions: cell lines of Table 1
Protocol: as §2
With the knowledge that 5-formyl-2′-deoxycytidine is cytotoxic to cervical carcinoma (HeLa) cells, the study was expanded in two directions: (i) a further compound was assessed: 5-carboxyl-2′-deoxycytidine; and (ii) their cytotoxic effects against a wide range of human cancer cell lines was assessed (Table 1).

U2OS cells = assay: Survival assay (MTT), U2OS; assay type: cell-based, human; conditions: Bone Osteoscarcoma, 72 hours, MTT
Protocol: as §1, §2

22Rv1 cells = assay: Survival assay (MTT), 22Rv1; assay type: cell-based, human; conditions: 22Rv1, Prostate Carcinoma, 72 hours, MTT
Protocol: as §1, §2

MIA PaCa-2 cells = assay: Survival assay (MTT), MIA PaCa-2; assay type: cell-based, human; conditions: MIA PaCa-, Pancreatic Carcinoma, 72 hours, MTT
Protocol: as §1, §2

MCF-7 cells = assay: Survival assay (MTT), MCF-7; assay type: cell-based, human; conditions: MCF-7, Epithelial Adenocarcinoma (Breast), 72 hours, MTT
Protocol: as §1, §2

HeLa cells = assay: Survival assay (MTT), HeLa; conditions: for IC50: HeLa
Protocol: as §5, §6
HeLa cells, grown as described above (Materials and Methods), were treated with 5-hydroxymethyl-2′-deoxycytidine and 5-formyl-2′-deoxycytidine. After three days of treatment with these compounds, cell survival was assessed as described above (Materials and Methods).
After three days of treatment with these compounds at a concentration of 100, 25, 6.25, 1.56, 0.39, 0.1, 0.02, or 0.006 μM, cell survival was assessed by MTT assay as described above (Materials and Methods).

SK-OV-3 cells = assay: Survival assay (MTT), SK-OV-3; assay type: cell-based, human; conditions: SK-OV-3, Ovarian Adenocarcinoma, 72 hours, MTT
Protocol: as §1, §2

A549 cells = assay: Survival assay (MTT), A549; assay type: cell-based, human; conditions: A549, Lung Carcinoma, 72 hours, MTT
Protocol: as §1, §2

A375 cells = assay: Survival assay (MTT), A375; assay type: cell-based, human; conditions: A375, Malignant Melanoma, 72 hours, MTT
Protocol: as §1, §2

A-498 cells = assay: Survival assay (MTT), A-498; assay type: cell-based, human; conditions: A-498, Kidney Carcinoma, 72 hours, MTT
Protocol: as §1, §2

HL-60 cells = assay: Survival assay (MTT), HL-60; assay type: cell-based, human; conditions: HL-60, Acute Promyelocytic Leukemia, 72 hours, MTT
Protocol: as §1, §2

U937 cells = assay: Survival assay (MTT), U937; assay type: cell-based, human; conditions: U937, Lymophoma, 72 hours, MTT
Protocol: as §1, §2

HCT-116 cells = assay: Survival assay (MTT), HCT-116; assay type: cell-based, human; conditions: HCT-116, Colon Carcinoma, 72 hours, MTT
Protocol: as §2

G30 cells = assay: Survival assay (MTT), G30; assay type: cell-based, human; conditions: G30, Glioma, Grade IV, 72 hours
Protocol: as §1, §2

Arpe19 cells = assay: Survival assay (MTT), Arpe19; assay type: cell-based, human; conditions: Arpe19, Normal, Ectoderm; 72 hours, MTT
Protocol: as §2
(§3) The present inventors further investigated the extent to which these compounds kill normal human cells; low cytotoxicity against normal human cells is advantageous property for anti-cancer agents. The cytotoxicity of these compounds in various normal human cell lines was therefore investigated (Table 3). Cells were grown and the survival assay was performed as described above (Materials and Methods).

G7 cells = assay: Survival assay (MTT), G7; assay type: cell-based, human; conditions: G7, Glioma, Grade IV, 72 hours
Protocol: (§4) Primary glioma neural stem (GNS) cells (G7, G14, G144, G166) were cultured on poly-D-lysine (Merck Millipore, Cat. Nr. A-003-E) and laminin (R&D Systems, Cat.Nr. 3446-005-01) coated plates in neural stem cell medium (50% DMEM-F12 (Thermofisher, Cat. Nr. 21041025), 50% neurobasal medium (Thermofisher, Cat. Nr. 10888-022), N2 (Life Technologies, Cat. Nr. A-003-E) and B27 supplements (Life Technologies, Cat.Nr. 12587010), 1 mM sodium pyruvate (Life Technologies, Cat.Nr. 11360-039), 2 mM glutamax (Life Technologies, Cat. Nr. 35050038), 1 mM HEPES (Fisher Scientific, Cat. Nr. BP299-1), 0.1 mM β-mercaptoethanol (Life Technologies, Cat. Nr. 31350010), 1× nonessential amino acids (Life Technologies, Cat. Nr. 11140-035), 0.006% bovine serum albumin (Sigma, Cat. Nr. A8577-10ML), 4 μg/ml heparin (Sigma, Cat. Nr. H3149-25KU), 100 U/ml penicillin, 100 μg/ml streptomycin, 20 ng/ml hEGF (R&D Systems, Cat. Nr. 236-EG-200), 10 ng/ml bFGF (Peprotech, Cat. Nr. 100-18B).
as §2

Buffy M cells = assay: Survival assay (MTT), Buffy M; assay type: cell-based, human; conditions: Normal, Bone Marrow, 72 hours
Protocol: as §1, §2, §3

G26 cells = assay: Survival assay (MTT), G26; assay type: cell-based, human; conditions: G26, Glioma, Grade IV, 72 hours
Protocol: as §1, §2

Buffy C cells = assay: Survival assay (MTT), Buffy C; assay type: cell-based, human; conditions: Normal, Bone Marrow, 72 hours
Protocol: as §1, §2, §3

G166 cells = assay: Survival assay (MTT), G166; assay type: cell-based, human; conditions: G166, Glioma, Grade IV, 72 hours
Protocol: as §4, §2

Buffy A cells = assay: Survival assay (MTT), Buffy A; assay type: cell-based, human; conditions: Normal, Bone Marrow, 72 hours
Protocol: as §1, §2, §3

U3017 cells = assay: Survival assay (MTT), U3017; assay type: cell-based, human; conditions: U3017, Glioma, Grade IV, 72 hours
Protocol: as §1, §2

SF188 cells = assay: Survival assay (MTT), SF188; assay type: cell-based, human; conditions: SF188, Glioma, Grade IV, 72 hours
Protocol: as §1, §2

[1] = tested on: Glioma, Grade IV cell lines; assay: Survival assay, panel of 12 patient derived Glioma, Grade IV cell lines; assay type: cell-based, human; conditions: of 12 cell lines of Table 2
Protocol: as §4, §1, §2
Due to lack of activity in previous assays, 5-carboxyl-2′-deoxycytidine was not included in this more rigorous analysis.

G14 cells = assay: Survival assay (MTT), G14; assay type: cell-based, human; conditions: G14, Glioma, Grade IV, 72 hours
Protocol: as §4, §2

U3013 cells = assay: Survival assay (MTT), U3013; assay type: cell-based, human; conditions: U3013, Glioma, Grade IV, 72 hours
Protocol: as §1, §2

DIPG007 cells = assay: Survival assay (MTT), DIPG007; assay type: cell-based, human; conditions: DIPG007, Glioma, Grade IV, 72 hours
Protocol: as §1, §2

HaCat cells = assay: Survival assay (MTT), HaCat; assay type: cell-based, human; conditions: Normal, Keratinocytes, 72 hours
Protocol: as §1, §2, §3

CB152 cells = assay: Survival assay (MTT), CB152; assay type: cell-based, human; conditions: CB152, Glioma, Grade IV, 72 hours
Protocol: as §1, §2

MRC5 cells = assay: Survival assay (MTT), MRC5; assay type: cell-based, human; conditions: MRC5, Normal, Lung; 72 hours, MTT
Protocol: as §1, §2, §3

G144 cells = assay: Survival assay (MTT), G144; assay type: cell-based, human; conditions: G144, Glioma, Grade IV, 72 hours
Protocol: as §4, §2

Nc1nc(=O)n([C@H]2C[C@H](O)[C@@H](CO)O2)cc1I [5-iodo-2′-deoxycytidine, reference compound]
IC50 (U87-MG cells; Homo sapiens, U-87 MG, 72 h): > 25 µM

COCc1cn([C@H]2C[C@H](O)[C@@H](CO)O2)c(=O)[nH]c1=O [5-methoxymethyl-2′-deoxyuridine]
cytotoxicity to U87-MG cells (cell survival) (U87-MG cells; 72 hours): unable to survive

Nc1nc(=O)n([C@H]2C[C@H](O)[C@@H](CO)O2)cc1Br [5-bromo-2′-deoxycytidine, reference compound]
IC50 (U87-MG cells; Homo sapiens, U-87 MG, 72 h): > 25 µM

Avastin (RTM): bevacizumab, an angiogenesis inhibitor with multiple oncology indications
overall survival benefit (glioblastoma multiforme): did not yield an overall survival benefit

Nc1nc(=O)n([C@H]2C[C@H](O)[C@@H](CO)O2)cc1C(=O)O [2d5caC, 5-carboxy-2′-deoxycytidine, reference compound]
IC50 (NCI-N87 cells; Homo sapiens): > 25 µM
cytotoxicity in the cancer cell lines evaluated (human cancer cell lines): no cytotoxic properties
IC50 (U2OS cells; Homo sapiens): > 25 µM
IC50 (22Rv1 cells; Homo sapiens, 22Rv1, 72 h): > 25 µM
IC50 (MIA PaCa-2 cells; Homo sapiens, MIA PaCa-2): > 25 µM
IC50 (MCF-7 cells; Homo sapiens, MCF7): > 25 µM
IC50 (HeLa cells; Homo sapiens, 72 h): > 25 µM
IC50 (SK-OV-3 cells; Homo sapiens): > 25 µM
IC50 (A549 cells; Homo sapiens, A549, 72 h): > 25 µM
IC50 (A375 cells; Homo sapiens, A-375): > 25 µM
IC50 (A-498 cells; Homo sapiens, A498, 72 h): > 25 µM
IC50 (U87-MG cells; Homo sapiens, U-87 MG, 72 h): > 25 µM
IC50 (HL-60 cells; Homo sapiens): > 25 µM
IC50 (U937 cells; Homo sapiens, U-937): > 25 µM
IC50 (HCT-116 cells; Homo sapiens, HCT-116, 72 h): > 25 µM

Nc1nc(=O)n([C@H]2C[C@H](O)[C@@H](COP(=O)(O)OP(=O)(O)OP(=O)(O)O)O2)cc1CO [5-hydroxymethyl-2′-deoxycytidine-5′-triphosphate]
cytotoxicity to U87-MG cells (cell survival) (U87-MG cells; 72 hours): cytotoxic

O=c1[nH]cc(F)c(=O)[nH]1 [5fU, 5-flurouracil, reference compound]
IC50 (NCI-N87 cells): 1.52 µM
IC50 (U2OS cells): 2.89 µM
IC50 (G30 cells): 23.3 µM
IC50 (Arpe19 cells): > 25 µM
IC50 (22Rv1 cells): > 25 µM
IC50 (G7 cells): 6.46 µM
IC50 (Buffy M cells): > 25 µM
IC50 (MIA PaCa-2 cells): 8.1 µM
IC50 (G26 cells): 7.12 µM
IC50 (Buffy C cells): > 25 µM
IC50 (MCF-7 cells): > 25 µM
IC50 (G166 cells): 4.81 µM
IC50 (HeLa cells; Cervical Adenocarcinoma, 72 hours, MTT): > 25 µM
IC50 (Buffy A cells): > 25 µM
IC50 (U3017 cells): 3.92 µM
IC50 (SK-OV-3 cells): 3.76 µM
IC50 (SF188 cells): 3.88 µM
number of Glioma, Grade IV cell lines killed [1]: 11 of 12
IC50 (G14 cells): 11.6 µM
IC50 (A549 cells): 1.85 µM
IC50 (U3013 cells): 4.14 µM
IC50 (A375 cells): 7.87 µM
IC50 (DIPG007 cells): 4.3 µM
IC50 (HaCat cells): 0.523 µM
IC50 (CB152 cells): 6.5 µM
IC50 (MRC5 cells): > 25 µM
IC50 (A-498 cells): 2.37 µM
IC50 (U87-MG cells; 72 hours): > 25 µM
IC50 (HL-60 cells): > 25 µM
IC50 (U937 cells): 7.45 µM
IC50 (HCT-116 cells): 3.54 µM
IC50 (G144 cells): 6.8 µM

Nc1nc(=O)n([C@H]2C[C@H](O)[C@@H](CO)O2)cc1Cl [5-chloro-2′-deoxycytidine, reference compound]
IC50 (U87-MG cells; Homo sapiens, U-87 MG, 72 h): > 25 µM

Nc1nc(=O)n([C@H]2C[C@H](O)[C@@H](COP(=O)(O)OP(=O)(O)OP(=O)(O)O)O2)cc1C=O [5-formyl-2′-deoxycytidine-5′-triphosphate]
cytotoxicity to HeLa cells (cell survival) (HeLa cells; three days of treatment, MTT, up to 100 μM): unable to survive
cytotoxicity to U87-MG cells (cell survival) (U87-MG cells; 72 hours): cytotoxic

CC(=O)OCc1cn([C@H]2C[C@H](O)[C@@H](CO)O2)c(=O)[nH]c1=O [5-acetoxymethyl-2′-deoxyuridine]
cytotoxicity to U87-MG cells (cell survival) (U87-MG cells; 72 hours): unable to survive
